Test results: ChEMBL document CHEMBL1128575, “Nonpeptidic inhibitors of human leukocyte elastase. 5. Design, synthesis, and X-ray crystallography of a series of orally active 5-aminopyrimidin-6-one-containing trifluoromethyl ketones” (J Med Chem, 1995)
≈ marks a conversion by molar mass, not a printed value. Calls of active or inactive are those of the source. The rule behind the calls is not given here.

Assays:
[1] = target: T1, Neutrophil elastase (Homo sapiens, UniProt P08246); experiment: In vitro inhibition of human leukocyte elastase mediated hydrolysis of the synthetic substrate MeO-Suc-Ala-Ala-Pro-Val-pNA
T1 sequence (P08246 whole entry): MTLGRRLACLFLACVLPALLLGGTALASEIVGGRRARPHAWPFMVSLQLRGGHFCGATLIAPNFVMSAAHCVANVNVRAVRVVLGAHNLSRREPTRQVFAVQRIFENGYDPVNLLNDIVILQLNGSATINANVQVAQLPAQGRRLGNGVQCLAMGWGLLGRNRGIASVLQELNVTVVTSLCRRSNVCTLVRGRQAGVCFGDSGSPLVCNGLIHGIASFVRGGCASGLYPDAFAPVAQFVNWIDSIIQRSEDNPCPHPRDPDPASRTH

[2] = test system: Cricetinae gen. sp.; experiment: Oral dose of 20 mg/Kg (30 min prior to instillation of elastase) was tested for the inhibition of elastase-induced lung hemorrhage in hamster; Not active; assay type: functional, organism-based; conditions: Cricetulus griseus
[3] = Partition coefficient (logP); assay type: physicochemical; conditions: octanol/water
[4] = test system: Cricetinae gen. sp.; experiment: Oral dose of 2.5 mg/Kg (90 min prior to instillation of elastase) was tested for the inhibition of elastase-induced lung hemorrhage in hamster; assay type: functional, Cricetulus griseus
[5] = test system: Cricetinae gen. sp.; experiment: Compound at an oral dose of 20 mg/Kg (90 min prior to instillation of elastase) was tested for the inhibition of elastase-induced lung hemorrhage in hamster; assay type: functional, Cricetulus griseus
[6] = test system: Cricetinae gen. sp.; experiment: Oral dose of 20 mg/Kg (30 min prior to instillation of elastase) was tested for the inhibition of elastase-induced lung hemorrhage in hamster; assay type: functional, Cricetulus griseus
[7] = test system: Cricetinae gen. sp.; experiment: Compound at an oral dose of 2.5 mg/Kg (90 min prior to instillation of elastase) was tested for the inhibition of elastase-induced lung hemorrhage in hamster; Not active; assay type: functional, organism-based; conditions: Cricetulus griseus
[8] = test system: Cricetinae gen. sp.; experiment: Oral dose of 2.5 mg/Kg (30 min prior to instillation of elastase) was tested for the inhibition of elastase-induced lung hemorrhage in hamster; assay type: functional, Cricetulus griseus
[9] = Selectivity ratio for bovine pancreatic chymotrypsin and HLE
[10] = Solubility of compound in 0.01 M sodium phosphate buffer at pH = […]; assay type: physicochemical; conditions: pH 7.4
[11] = test system: Cricetinae gen. sp.; experiment: Oral dose of 2.5 mg/Kg (30 min prior to instillation of elastase) was tested for the inhibition of elastase-induced lung hemorrhage in hamster; Not active; assay type: functional, organism-based; conditions: Cricetulus griseus

Question: Which results are given for `CC(C)C(NC(=O)Cn1c(-c2ccc(N)cc2)ncc(NC(=O)OCc2ccccc2)c1=O)C(=O)C(F)(F)F` (centres undefined)?
Answer: Ki [1]: 3.6 nM; inhibition [2]: inactive

Question: Which results are given for `CC(C)C(NC(=O)Cn1c(-c2ccccc2)ccc(NC(=O)OCc2ccccc2)c1=O)C(=O)C(F)(F)F` (centres undefined)?
Answer: logP [3]: > 4; inhibition [2]: inactive

Question: With `CC(C)C(NC(=O)Cn1c(-c2ccc(F)cc2)ncc(NC(=O)OCc2ccncc2)c1=O)C(=O)C(F)(F)F` (centres undefined) as the compound, how does the Ki [1] read?
Answer: 23 nM

Question: And the inhibition [2]?
Answer: inactive

Question: Which results are given for `CC(C)C(NC(=O)Cn1c(-c2cccs2)ncc(NC(=O)OCC(F)(F)F)c1=O)C(=O)C(F)(F)F` (centres undefined)?
Answer: inhibition in vivo at 2.5 mg/kg [4]: 41%; Ki [1]: 48 nM; inhibition in vivo at 20 mg/kg [5]: 60%

Question: Which results are given for `CC(C)C(NC(=O)Cn1c(-c2ccccc2)ncc(NC(=O)OCc2ccccc2)c1=O)C(=O)C(F)(F)F` (centres undefined)?
Answer: logP [3]: 2.1; inhibition in vivo at 20 mg/kg [6]: 54%

Question: Which inhibition [7] does the source give for `CC(C)C(NC(=O)Cn1c(-c2ccc(F)cc2)ncc(NS(=O)(=O)C2CCCCC2)c1=O)B1OC(C)(C)C(C)(C)O1` (centres undefined) here?
Answer: inactive

Question: What about the inhibition in vivo at 2.5 mg/kg [8] of the same compound?
Answer: 31%

Question: What about the Ki [1] of the same compound?
Answer: 0.21 nM

Question: For `CC(C)C(NC(=O)Cn1c(-c2cccs2)ncc(N)c1=O)C(=O)C(F)(F)F` (centres undefined), which inhibition in vivo at 2.5 mg/kg [8] is on record?
Answer: 47%

Question: What about the inhibition in vivo at 2.5 mg/kg [4] of the same compound?
Answer: 37%

Question: And the Ki [1]?
Answer: 52 nM

Question: What about the inhibition in vivo at 20 mg/kg [6] of the same compound?
Answer: 75%

Question: With `CC(C)C(NC(=O)Cn1c(-c2cccs2)ncc(NC(=O)OC(C)(C)C)c1=O)C(=O)C(F)(F)F` (centres undefined) as the compound, how does the inhibition in vivo at 2.5 mg/kg [8] read?
Answer: 50%

Question: What about the inhibition in vivo at 2.5 mg/kg [4] of the same compound?
Answer: 33%

Question: And the Ki [1]?
Answer: 27 nM

Question: And the inhibition in vivo at 20 mg/kg [6]?
Answer: 92%

Question: With `COC(=O)Nc1cnc(-c2cccs2)n(CC(=O)NC(C(=O)C(F)(F)F)C(C)C)c1=O` (centres undefined) as the compound, how does the inhibition [7] read?
Answer: inactive

Question: What about the inhibition in vivo at 2.5 mg/kg [8] of the same compound?
Answer: 49%

Question: And the Ki [1]?
Answer: 42 nM

Question: What about the inhibition in vivo at 20 mg/kg [6] of the same compound?
Answer: 80%

Question: Which Ki [1] does the source give for `CC(C)C(NC(=O)Cn1c(-c2cc(C(F)(F)F)cc(C(F)(F)F)c2)ncc(NC(=O)OCc2ccccc2)c1=O)C(=O)C(F)(F)F` (centres undefined) here?
Answer: 72 nM

Question: And the inhibition [2]?
Answer: inactive

Question: Which Ratio [9] does the source give for `CC(C)C(NC(=O)Cn1c(-c2ccc([N+](=O)[O-])cc2)ncc(NC(=O)OCc2ccccc2)c1=O)C(=O)C(F)(F)F` (centres undefined) here?
Answer: 406

Question: What about the Ki [1] of the same compound?
Answer: 17 nM

Question: And the inhibition [2]?
Answer: inactive

Question: With `CC(C)C(NC(=O)Cn1c(-c2ccc(F)cc2)ncc(NC(=O)OCc2ccccn2)c1=O)C(=O)C(F)(F)F` (centres undefined) as the compound, how does the Ki [1] read?
Answer: 22 nM

Question: What about the inhibition [2] of the same compound?
Answer: inactive

Question: What does the source list for `CC(C)C(NC(=O)Cn1c(-c2ccccc2)ncc(NC(=O)OCC(F)(F)F)c1=O)C(=O)C(F)(F)F` (centres undefined)?
Answer: inhibition in vivo at 2.5 mg/kg [4]: 39%; Ki [1]: 40 nM; inhibition in vivo at 20 mg/kg [5]: 47%

Question: Which Ratio [9] does the source give for `COc1ccc(-c2ncc(NC(=O)OCc3ccccc3)c(=O)n2CC(=O)NC(C(=O)C(F)(F)F)C(C)C)cc1` (centres undefined) here?
Answer: 272

Question: And the Ki [1]?
Answer: 8.1 nM

Question: What about the inhibition [2] of the same compound?
Answer: inactive

Question: Which Ratio [9] does the source give for `CC(C)C(NC(=O)Cn1c(-c2ccc(Cl)cc2)ncc(NC(=O)OCc2ccccc2)c1=O)C(=O)C(F)(F)F` (centres undefined) here?
Answer: 322

Question: And the Ki [1]?
Answer: 18 nM

Question: What about the inhibition [2] of the same compound?
Answer: inactive

Question: For `CC(C)C(NC(=O)Cn1c(-c2ccccc2)ncc(NC(=O)C(F)(F)F)c1=O)C(=O)C(F)(F)F` (centres undefined), which inhibition [7] is on record?
Answer: inactive

Question: And the inhibition in vivo at 2.5 mg/kg [8]?
Answer: 37%

Question: And the Ki [1]?
Answer: 94 nM

Question: What about the inhibition in vivo at 20 mg/kg [6] of the same compound?
Answer: 73%

Question: What does the source list for `CC(C)C(NC(=O)Cn1c(-c2cccnc2)ncc(NC(=O)OCc2ccccc2)c1=O)C(=O)C(F)(F)F` (centres undefined)?
Answer: Ratio [9]: 245; Ki [1]: 33 nM; solubility [10]: 580 µg/mL (≈ 1090 µM); logP [3]: 1.3; inhibition in vivo at 20 mg/kg [6]: 59%

Question: What does the source list for `CC(C)C(NC(=O)Cn1c(-c2ccc(NC=O)cc2)ncc(NC(=O)OCc2ccccc2)c1=O)C(=O)C(F)(F)F` (centres undefined)?
Answer: Ki [1]: 9 nM; inhibition [2]: inactive

Question: Which Ki [1] does the source give for `CC(C)C(NC(=O)Cn1c(-c2cccs2)ncc(N)c1=O)B1OC(C)(C)C(C)(C)O1` (centres undefined) here?
Answer: 4.9 nM

Question: And the inhibition [11]?
Answer: inactive

Question: What about the inhibition in vivo at 20 mg/kg [6] of the same compound?
Answer: 50%

Question: What does the source list for `CC(C)C(NC(=O)Cn1c(-c2cc(F)cc(F)c2)ncc(N)c1=O)C(=O)C(F)(F)F` (centres undefined)?
Answer: inhibition in vivo at 2.5 mg/kg [4]: 45%; Ki [1]: 270 nM; inhibition in vivo at 20 mg/kg [6]: 72%
